According to patent US10077237B2 (Sanofi, priority 2013, dated 2018):
Values joined by “and” are separate entries in the source; they are usually repeats but may differ in a detail not shown here. Identical values can stand only once. Counter-ions that a name gives are not always drawn.

Molecular target: T1, recombinant human AMPK complex, containing α2β1γ2 (Homo sapiens, UniProt P54646+Q9Y478)
T1 construct: hsAMPKα2-552-His, hsAMPKβ1-2-270 and hsAMPKγ-2-569 respectively; hsAMPKβ1-2-270; hsAMPKγ-2-569; His (C); made in house; host or cells: Spodoptera frugiperda Sf21 (baculovirus)
T1 sequence (P54646 2-552): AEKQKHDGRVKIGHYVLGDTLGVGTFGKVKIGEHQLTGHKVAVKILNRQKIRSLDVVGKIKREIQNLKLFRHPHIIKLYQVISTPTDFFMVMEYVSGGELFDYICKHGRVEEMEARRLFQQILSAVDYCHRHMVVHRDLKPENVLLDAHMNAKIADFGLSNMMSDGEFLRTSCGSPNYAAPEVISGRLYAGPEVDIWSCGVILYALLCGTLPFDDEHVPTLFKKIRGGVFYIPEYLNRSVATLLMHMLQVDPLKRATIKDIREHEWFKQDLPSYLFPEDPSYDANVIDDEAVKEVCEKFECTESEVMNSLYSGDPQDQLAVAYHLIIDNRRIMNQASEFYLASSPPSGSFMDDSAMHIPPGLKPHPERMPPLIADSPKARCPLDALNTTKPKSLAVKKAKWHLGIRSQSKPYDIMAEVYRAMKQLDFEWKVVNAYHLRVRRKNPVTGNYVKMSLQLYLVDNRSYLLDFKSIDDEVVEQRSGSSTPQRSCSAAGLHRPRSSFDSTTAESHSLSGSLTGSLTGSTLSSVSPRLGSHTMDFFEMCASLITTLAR
T1 sequence (Q9Y478 2-270): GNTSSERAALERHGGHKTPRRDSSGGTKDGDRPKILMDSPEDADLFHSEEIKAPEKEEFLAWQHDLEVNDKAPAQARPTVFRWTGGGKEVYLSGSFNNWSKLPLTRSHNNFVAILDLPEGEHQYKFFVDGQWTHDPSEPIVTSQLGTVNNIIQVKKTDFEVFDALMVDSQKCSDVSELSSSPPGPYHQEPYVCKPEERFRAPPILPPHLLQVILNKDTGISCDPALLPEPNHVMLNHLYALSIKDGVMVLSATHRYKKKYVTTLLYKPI
T1 sequence (Q9UGJ0 2-569 partner limits assumed): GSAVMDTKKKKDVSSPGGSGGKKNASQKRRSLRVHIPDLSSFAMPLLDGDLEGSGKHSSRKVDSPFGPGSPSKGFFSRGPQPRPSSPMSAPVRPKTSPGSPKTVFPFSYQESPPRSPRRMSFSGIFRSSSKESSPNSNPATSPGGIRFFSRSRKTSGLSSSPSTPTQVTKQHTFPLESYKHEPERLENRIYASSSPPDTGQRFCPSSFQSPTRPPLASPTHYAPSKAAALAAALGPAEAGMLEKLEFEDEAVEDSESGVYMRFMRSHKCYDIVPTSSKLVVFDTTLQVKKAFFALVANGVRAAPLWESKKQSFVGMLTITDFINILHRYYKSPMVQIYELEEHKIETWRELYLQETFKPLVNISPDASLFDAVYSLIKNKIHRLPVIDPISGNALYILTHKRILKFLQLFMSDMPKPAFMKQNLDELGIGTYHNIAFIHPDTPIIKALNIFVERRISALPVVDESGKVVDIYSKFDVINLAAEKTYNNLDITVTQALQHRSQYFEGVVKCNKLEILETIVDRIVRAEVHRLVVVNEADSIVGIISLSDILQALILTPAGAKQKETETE
Experiment: AMPK in vitro activation assay (HTRF)
Assay type: biochemical
Conditions: for EC50: HTRF, recombinant human α2β1γ2 AMPK, 200 μM ATP, biotinylated ACC-CREBp peptide, repeat determinations on separate lines; for Emax: potentiation of AMPK activity as percent over the basal signal (without compound)
Description: The recombinant human AMPK complex, containing α2β1γ2 was obtained from baculovirus expression system and generated by cotransfection in Spodoptera frugiperda 21 (Sf21). […] were produced in serum free medium (SF900 II, Invitrogen) for 82 hours after a triple infection at a multiplicity of infection (M.O.I.) of 0.05, 0.06 and 0.045 for hsAMPKα2-552-His, hsAMPKβ1-2-270 and hsAMPKγ-2-569 respectively. Cells were harvested by centrifugation at 1,000×g for 10 minutes at 4° C. and stored at −80° C. The insect cell pellet from 8 liters of culture was resuspended and homogenized in 580 ml of lysis buffer (20 mM Hepes pH 7.5, 150 mM NaCl, 10 mM imidazole, 50 mM NaF, 10% Glycerol and supplemented with EDTA free proteases inhibitor cocktail Roche). The AMPK complex was partially purified using an affinity chromatography under a Ni-NTA Agarose column equilibrated in the lysis buffer and eluted with a gradient (0 to 400 mM) of Imidazol.
A homogeneous time-resolved fluorescence (HTRF) assay was used (Li et al, Anal. Biochem. (2003) 321, 151-156) to identify compounds with stimulating activity for the recombinant human AMPK. Enzyme reaction was performed into a 96-well microtiter plate. First, 20 μL of test compounds in 0.5% DMSO were dispensed followed by 10 μL of protein in 50 mM HEPES buffer at pH 7.0, 100 mM NaCl, 5 mM MgCl2, 0.01% BSA, 0.8 mM DTT. After, 30 min incubation at room temperature, the reaction was initiated by the addition of 10 μL of a solution containing 200 μM of ATP as donor substrate, 2 μM or 0.08 μM of biotinylated ACC-CREBp peptide (PolyPeptide) as acceptor. Plates were then incubated 45 min at 37° C. The reaction was terminated by the addition of 40 μl detection mixture containing Eu^3+ cryptate-conjugated anti-pS^133-CREB antibody and streptavidine-XL665 (CisBio). Plates were further incubated for 2 h30 at room temperature. The fluorescence signal was measured using an Envision multireader (Perkin Elmer). The non-specific signal was obtained without substrates. Potentiation of AMPK activity was expressed as a percent over the basal signal (without compound) from which an EC50 value was determined.
The EC50 of a graded dose response curve represents the concentration of a compound where 50% of its maximal effect is observed.

SMILES | EC50 | Emax [%]
COc1cc(C(O)=C2C(=O)Nc3cc(Cl)c(-c4ccc5c(ccn5C)c4)cc32)on1 [Compound 154, 6-chloro-3-[hydroxy-(3-methoxyisoxazol-5-yl)methylene]-5-(1-methylindol-5-yl)indolin-2-one] | 0.7 nM | 256
COc1cccc(-c2ccc(-c3cc4c(cc3Cl)NC(=O)C4=C(O)c3cc(OC(C)C)no3)cc2)c1O [Compound 109, 6-chloro-3-[hydroxy-(3-isopropoxyisoxazol-5-yl)methylene]-5-[4-(2-hydroxy-3-methoxy-phenyl)phenyl]indolin-2-one] | 0.6 nM | 165
O=C1Nc2cc(Cl)c(-c3ccc(C4(CO)CC4)cc3)cc2C1=C(O)c1cc(F)cc(F)c1 [Compound 144, 6-chloro-3-[(3,5-difluorophenyl)hydroxy-methylene]-5-[4-[1-(hydroxymethyl)cyclopropyl]phenyl]indolin-2-one] | 0.9 nM | 210
COc1ccc(C(O)=C2C(=O)Nc3cc(F)c(-c4ccc(C5(CO)CC5)cc4)cc32)cc1F [Compound 125, 6-fluoro-3-[(3-fluoro-4-methoxy-phenyl)hydroxy-methylene]-5-[4-[1-(hydroxymethyl)cyclopropyl]phenyl]indolin-2-one] | 0.2 nM | 230
COc1cc(C(O)=C2C(=O)Nc3cc(Cl)c(-c4ccc(C(CO)CO)cc4)cc32)on1 [Compound 121, 6-chloro-5-[4-[2-hydroxy-1-(hydroxymethyl)ethyl]phenyl]-3-[hydroxy-(3-methoxyisoxazol-5-yl)methylene]indolin-2-one] | 4 nM | 172
COc1ccc(C(O)=C2C(=O)Nc3cc(Cl)c(-c4ccc(N5CCOCC5)cc4)cc32)cc1F [Compound 77, 6-Chloro-3-[1-(3-fluoro-4-methoxy-phenyl)-1-hydroxy-methylidene]-5-(4-morpholin-4-yl-phenyl)-1,3-dihydro-indol-2-one] | 0.5 nM | 128
O=C1Nc2cc(Cl)c(-c3ccc(N4CCOCC4)cc3)cc2C1=C(O)c1cc(Br)no1 [Compound 41, 3-[1-(3-Bromo-isoxazol-5-yl)-1-hydroxy-methylidene]-6-chloro-5-(4-morpholin-4-yl-phenyl)-1,3-dihydro-indol-2-one] | 3 nM | 115
O=C1Nc2cc(Cl)c(-c3ccc(C4CC(O)C4)cc3)cc2C1=C(O)c1ccc(F)cc1F (stereo not drawn) [Compound 155, 6-chloro-3-[(2,4-difluorophenyl)hydroxy-methylene]-5-[4-(3-hydroxycyclobutyl)phenyl]indolin-2-one] | 60 nM | 131
O=C1Nc2cc(Cl)c(-c3ccc(C4(CO)CC4)cc3)cc2C1=C(O)c1ccncc1F [Compound 160, 6-chloro-3-[(3-fluoro-4-pyridyl)hydroxy-methylene]-5-[4-[1-(hydroxymethyl)cyclopropyl]phenyl]indolin-2-one] | 0.1 nM | 191
COc1cccc(-c2ccc(-c3cc4c(cc3Cl)NC(=O)C4=C(O)c3cc(C4CC4)no3)cc2)c1O [Compound 117, 6-chloro-3-[(3-cyclopropylisoxazol-5-yl)hydroxy-methylene]-5-[4-(2-hydroxy-3-methoxy-phenyl)phenyl]indolin-2-one] | 0.1 nM | 129
Cc1cc(C(O)=C2C(=O)Nc3cc(Cl)c(-c4ccc(N5CCOCC5)cc4)cc32)sn1 [Compound 13, 6-Chloro-3-[1-hydroxy-1-(3-methyl-isothiazol-5-yl)-methylidene]-5-(4-morpholin-4-yl-phenyl)-1,3-dihydro-indol-2-one] | 12 nM and 5 nM | 
CC(C)(C)c1cc(C(O)=C2C(=O)Nc3cc(Cl)c(-c4ccc(C5CC(O)C5)cc4)cc32)on1 (stereo not drawn) [Compound 164, 3-[(3-tert-butylisoxazol-5-yl)-hydroxy-methylene]6-chloro-5-[4-(3-hydroxycyclobutyl)phenyl]indolin-2-one] | 11 nM | 194
O=C1Nc2cc(Cl)c(-c3ccc(N4CCOCC4)cc3)cc2C1=C(O)c1cc(C2CCCCC2)no1 [Compound 86, 6-chloro-3-[(3-cyclohexylisoxazol-5-yl)hydroxy-methylene]-5-(4-morpholinophenyl)indolin-2-one] | 61 nM | 155
Cc1cc(C(O)=C2C(=O)Nc3cc(Cl)c(-c4ccc(OCC5CCO5)cc4)cc32)on1 (stereo not drawn) [Compound 115, 6-chloro-3-[hydroxy-(3-methylisoxazol-5-yl)methylene]-5-[4-(oxetan-2-ylmethoxy)phenyl]indolin-2-one] | 30 nM | 149
O=C1Nc2cc(Cl)c(-c3ccc(C4(CO)CC4)cc3)cc2C1=C(O)c1cc(Br)no1 [Compound 73, 3-[1-(3-Bromo-isoxazol-5-yl)-1-hydroxy-methylidene]-6-chloro-5-[4-(1-hydroxymethyl-cyclopropyl)phenyl]-1,3-dihydro-indol-2-one] | 6 nM | 148
COc1cc(C(O)=C2C(=O)Nc3cc(Cl)c(-c4ccc(N5CCCC5)cc4)cc32)on1 [Compound 137, 6-chloro-3-[hydroxy-(3-methoxyisoxazol-5-yl)methylene]-5-(4-pyrrolidin-1-ylphenyl)indolin-2-one] | 16 nM | 271
COc1ccc(C(O)=C2C(=O)Nc3cc(Cl)c(-c4ccc(C5(CO)CC5)cc4)cc32)cn1 [Compound 116, 6-chloro-3-[hydroxy-(6-methoxy-3-pyridyl)methylene]-5-[4-[1-(hydroxymethyl)cyclopropyl]phenyl]indolin-2-one hydrochloride] | 0.3 nM and 0.8 nM | 
Cc1cc(C(O)=C2C(=O)Nc3cc(Cl)c(-c4ccc(C5(CO)CC5)s4)cc32)on1 [Compound 45, 6-Chloro-5-[5-(1-hydroxymethyl-cyclopropyl)-thiophen-2-yl]-3-[1-hydroxy-1-(3-methyl-isoxazol-5-yl)-methylidene]-1,3-dihydro-indol-2-one] | 230 nM | 155
COc1cc(C(O)=C2C(=O)Nc3cc(Cl)c(-c4ccc(C5CC(O)C5)cc4)cc32)on1 (stereo not drawn) [Compound 135, 6-chloro-5-[4-(3-hydroxycyclobutyl)phenyl]-3-[hydroxy-(3-methoxyisoxazol-5-yl)methylene]indolin-2-one] | 9 nM | 319
Cc1cc(C(O)=C2C(=O)Nc3cc(Cl)c(-c4ccc(OCCCN5CCNCC5)cc4)cc32)on1 [Compound 69, 6-Chloro-3-[1-hydroxy-1-(3-methyl-isoxazol-5-yl)methylidene]-5-[4-(3-piperazin-1-yl-propoxy)phenyl]-1,3-dihydro-indol-2-one, hydrochloride] | 8 nM | 134
O=C1Nc2cc(Cl)c(-c3ccc(C4CC(O)C4)cc3)cc2C1=C(O)c1cc(F)cc(F)c1 (stereo not drawn) [Compound 161, 6-chloro-3-[(3,5-difluorophenyl)hydroxy-methylene]-5-[4-(3-hydroxycyclobutyl)phenyl]indolin-2-one] | 15 nM | 155
COCCOc1cc(C(O)=C2C(=O)Nc3cc(Cl)c(-c4ccc(-c5cccc(OC)c5O)cc4)cc32)on1 [Compound 79, 6-chloro-3-[hydroxy-[3-(2-methoxyethoxy)isoxazol-5-yl]methylene]-5-[4-(2-hydroxy-3-methoxy-phenyl)phenyl]indolin-2-one] | 38 nM | 133
